According to US6855730B2, “3-methylidenyl-2-indolinone modulators of protein kinase” (Sugen, Inc., priority 1998, dated 2005):

Experiments:
[1] = biological target: T1, chimeric receptor having the extra-cellular domain of EGF-R and the intra-cellular domain of Her2 (Homo sapiens, UniProt P04626); assay: EGF-induced Her2-driven BrdU incorporation; format: cell-based; settings: read-out: BrdU HER 2 driven IC50
T1 construct: fused on or other part: the same chimera
Description: The cellular/catalytic assays described herein are performed in an ELISA format. The general procedure is as follows: a compound is introduced to cells expressing the test kinase, either naturally or recombinantly, for a selected period of time after which, if the test kinase is a receptor, a ligand known to activate the receptor is added. The cells are lysed and the lysate is transferred to the wells of an ELISA plate previously coated with a specific antibody recognizing the substrate of the enzymatic phosphorylation reaction. Non-substrate components of the cell lysate are washed away and the amount of phosphorylation on the substrate is detected with an antibody specifically recognizing phosphotyrosine compared with control cells that were not contacted with a test compound. The cellular/biologic assays described herein measure the amount of DNA made in response to activation of a test kinase, which is a general measure of a proliferative response. The general procedure for this assay is as follows: a compound is introduced to cells expressing the test kinase, either naturally or recombinantly, for a selected period of time after which, if the test kinase is a receptor, a ligand known to activate the receptor is added. After incubation at least overnight, a DNA labeling reagent such as Bromodeoxyuridine (BrdU) or 3H-thymidine is added. The amount of labeled DNA is detected with either an anti-BrdU antibody or by measuring radioactivity and is compared to control cells not contacted with a test compound.
EGF-Induced Her2-Driven BrdU Incorporation
Protocol • (1) Cells-are seeded at 8000 cells/well in DMEM, 10% CS, 2mM Gln in a 96-well plate. Cells are incubated overnight at 37° C. in 5% CO2. • (2) After 24 hours, the cells are washed with PBS, and then are serum starved in serum free medium (0% CS DMEM with 0.1% BSA) for 24 hours. • (3) On day 3, ligand (EGF=2 nM, prepared in DMEM with 0.1% BSA) and test compounds are added to the cells simultaneously. The negative control wells receive serum free DMEM with 0.1% BSA only, the positive control cells receive the ligand (EGF) but no test compound. Test compounds are prepared in serum free DMEM with ligand in a 96 well plate, and serially diluted for 7 test concentrations. • (4) After 20 hours of ligand activation, diluted BrdU labeling reagent (1:100 in DMEM, 0.1% BSA) is added and the cells are incubated with BrdU (final concentration=10 μM) for 1.5 hours. • (5) After incubation with labeling reagent, the medium is removed by decanting and tapping the inverted plate on a paper towel. FixDenat solution is added (50 μl/well) and the plates are incubated at room temperature for 45 minutes on a plate shaker. • (6) The FixDenat solution is thoroughly removed by decanting and tapping the inverted plate on a paper towel. Milk is added (5% dehydrated milk in PBS, 200 μ/well) as a blocking solution and the plate is incubated for 30 minutes at room temperature on a plate shaker. • (7) The blocking solution is removed by decanting and the wells are washed once with PBS. Anti-BrdU-POD solution (1:100 dilution in PBS, 1% BSA) is added (100 μl/well) and the plate is incubated for 90 minutes at room temperature on a plate shaker. • (8) The antibody conjugate is thoroughly removed by decanting and rinsing the wells 5 times with PBS, and the plate is dried by inverting and tapping on a paper towel. • (9) TMB substrate solution is added (100 μl/well) and incubated for 20 minutes at room temperature on a plate shaker until color development is sufficient for photometric detection. • (10) The absorbance of the samples are measured at 410 nm (in “dual wavelength” mode with a filter reading at 490 nm, as a reference wavelength) on a Dynatech ELISA plate reader.

[2] = system: SKOV3 cells; assay: SKOV3 growth assay (2% FBS); format: cell-based; settings: Homo sapiens, SK-OV-3, read-out: SKOV3 growth (2% FBS) IC50

T1 sequence (P04626 676-1255 limits assumed, change not shown): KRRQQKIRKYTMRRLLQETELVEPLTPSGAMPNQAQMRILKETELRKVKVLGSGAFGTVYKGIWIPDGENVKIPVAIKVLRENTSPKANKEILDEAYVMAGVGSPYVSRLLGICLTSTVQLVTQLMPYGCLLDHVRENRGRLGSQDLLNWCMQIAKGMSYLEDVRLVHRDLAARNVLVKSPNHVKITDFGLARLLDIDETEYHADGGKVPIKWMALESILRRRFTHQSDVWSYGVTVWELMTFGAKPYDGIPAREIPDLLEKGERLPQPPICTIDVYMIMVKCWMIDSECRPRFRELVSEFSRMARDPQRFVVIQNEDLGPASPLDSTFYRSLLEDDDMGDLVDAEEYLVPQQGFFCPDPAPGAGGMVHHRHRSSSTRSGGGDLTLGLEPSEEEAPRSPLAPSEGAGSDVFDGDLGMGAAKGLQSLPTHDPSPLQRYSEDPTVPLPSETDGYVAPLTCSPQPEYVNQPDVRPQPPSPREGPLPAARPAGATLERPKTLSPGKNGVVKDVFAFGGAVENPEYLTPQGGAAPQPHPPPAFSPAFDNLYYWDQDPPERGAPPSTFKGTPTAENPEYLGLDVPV

COc1ccc(C=C2C(=O)Nc3ccccc32)cc1-c1cccc(NC(C)=O)c1 [Example 29, N-[2′-Methoxy-5′-(2-oxo-1,2-dihydroindol-3-ylidenemethyl)-biphenyl-3-yl]-acetamide]
IC50 [1]: 8.1 µM
IC50 [2]: 7.9 µM

COc1cc(C)c(/C=C2/C(=O)Nc3ccc(F)cc32)cc1C(C)C [Example 30, 5-Fluoro-3-(5-isopropyl-4-methoxy-2-methyl-benzylidene)-1,3-dihydroindol-2-one]
IC50 [1]: 8.1 µM
IC50 [2]: 16 µM

COc1ccc(/C=C2/C(=O)Nc3cc(NC(C)=O)ccc32)cc1-c1cccs1 [Example 31, N-[3-(4-Methoxy-3-thiophen-2-ylbenzylidene)-2-oxo-2,3-dihydro-1H-indol-6-yl]-acetamide]
IC50 [1]: 28.7 µM
IC50 [2]: 0.4 µM

COc1ccc(/C=C2/C(=O)Nc3ccccc32)cc1-c1ccsc1 [Example 35, 3-(4-Methoxy-3-thiophen-3-ylbenzylidene)-1,3-dihydroindol-2-one]
IC50 [1]: 13.8 µM
IC50 [2]: 16.2 µM

COc1cc(C)c(/C=C2/C(=O)Nc3ccc(Br)cc32)cc1C(C)C [Example 36, 5-Bromo-3-(5-isopropyl-4-methoxy-2-methyl-benzylidene)-1,3-dihydroindol-2-one]
IC50 [1]: 21.4 µM
IC50 [2]: > 25 µM

COc1cc(/C=C2/C(=O)Nc3ccccc32)c(-c2cccs2)cc1OC [Example 39, 3-(4,5-Dimethoxy-2-thiophen-2-ylbenzylidene)-1,3-dihydroindol-2-one]
IC50 [1]: 5.4 µM
IC50 [2]: 9.6 µM

CC(=O)Nc1ccc2c(c1)NC(=O)/C2=C/c1ccc(OCCN2CCOCC2)c(-c2cccs2)c1 [Example 40, N-{3-[4-(2-Morpholin-4-ylethoxy)-3-thiophen-2-ylbenzylidene]-2-oxo-2,3-dihydro-1H-indol-6-yl}-acetamide]
IC50 [1]: 22.6 µM
IC50 [2]: 22.5 µM

CCOc1cccc(-c2cc(C=C3C(=O)Nc4ccccc43)ccc2OC)c1 [Example 46, 3-(3′-Ethoxy-6-methoxybiphenyl-3-ylmethylene)-1,3-dihydroindol-2-one]
IC50 [1]: 25.3 µM
IC50 [2]: 7.7 µM

COc1ccc(/C=C2/C(=O)Nc3ncccc32)cc1C1CCCC1 [Example 47, 3-(3-Cyclopentyl-4-methoxybenzylidene)-1,3-dihydropyrrolo[2,3-b]pyridin-2-one]
IC50 [1]: > 50 µM
IC50 [2]: 46.9 µM

COc1cc(C=C2C(=O)Nc3ccccc32)c(-c2ccccc2OC)cc1OC [Example 49, 3-(4,5,2′-Trimethoxybiphenyl-2-ylmethylene)-1,3-dihydroindol-2-one]
IC50 [1]: 9.1 µM
IC50 [2]: 20.6 µM

CC(C)c1cc(/C=C2/C(=O)Nc3ccc(Br)cc32)cc(C(C)C)c1OCCN1CCOCC1 [Example 57, 5-Bromo-3-[3,5-diisopropyl-4-(2-morpholin-4-ylethoxy)benzylidene]-1,3-dihydroindol-2-one]
IC50 [1]: 9.6 µM
IC50 [2]: 4 µM

CCOc1cccc(-c2cc(OC)c(OC)cc2/C=C2/C(=O)Nc3ccccc32)c1 [Example 58, 3-(3′-Ethoxy-4,5-dimethoxybiphenyl-2-ylmethylene)-1,3-dihydroindol-2-one]
IC50 [1]: 13.5 µM
IC50 [2]: 22 µM

COc1ccc(/C=C2/C(=O)Nc3ccc(Cl)cc32)cc1-c1cccs1 [Example 59, 5-chloro-3-(4-Methoxy-3-thiophen-2-ylbenzylidene)-1,3-dihydroindol-2-one]
IC50 [1]: 14.4 µM
IC50 [2]: 17.2 µM

COc1ccc(/C=C2/C(=O)Nc3ccc(Cl)cc32)cc1-c1cccnc1 [Example 60]
IC50 [1]: 40 µM
IC50 [2]: 4.8 µM

COc1cccc(-c2cc(OC)c(OC)cc2/C=C2/C(=O)Nc3ccc(Cl)cc32)c1 [Example 61, 5-Chloro-3-(4,5-3′-Trimethoxybiphenyl-2-ylmethylene)-1,3-dihydroindol-2-one]
IC50 [1]: > 50 µM
IC50 [2]: > 25 µM

COc1cc(/C=C2/C(=O)Nc3ccccc32)c(-c2ccc3ccccc3c2)cc1OC [Example 62, 3-(4,5-Dimethoxy-2-naphthalen-2-ylbenzylidene)-1,3-dihydroindol-2-one]
IC50 [1]: 28.8 µM
IC50 [2]: 6.1 µM
